Test results: patent publication US20250304620A1, “ANTIMICROBIAL PEPTIDE AND APPLICATION THEREOF” (priority 2023, published 2025)
Converted amounts (≈) assume the structure as drawn. Marks after values point to notes of the source that are not given here. Non-standard residues stand in square brackets, D forms with d. Residues, ends and D or L forms follow the SMILES beside them. dPhe(3,4-F2) = N[C@H](Cc1ccc(F)c(F)c1)C(=O)O; dPhe(4-Me) = Cc1ccc(C[C@@H](N)C(=O)O)cc1; d2Nal = N[C@H](Cc1ccc2ccccc2c1)C(=O)O

Key:
[1] = tested on: carbapenem-resistant Klebsiella pneumoniae (CRKP); format: cell-based; conditions: carbapenem-resistant (CRKP)
Text: (§1) According to the Standards of Clinical and Laboratory Standards Institute (CLSI) of the USA for antimicrobial drug susceptibility test operation standards, the micronutrient serial twofold dilution method was used further determine MICs of the antimicrobial peptides LV-1 to LV-30 against 5 clinically common drug-resistant bacterial strains. The experiment was repeated 5 times in parallel. […] The tested drug-resistant strains included Methicillin-resistant Staphylococcus aureus (MRSA), carbapenem-resistant Escherichia coli (CREC), vancomycin-resistant Enterococcus (VRE), carbapenem-resistant Pseudomonas aeruginosa (CRPA), and carbapenem-resistant Klebsiella pneumoniae (CRKP).

[2] = tested on: Methicillin-resistant Staphylococcus aureus (MRSA); format: cell-based; conditions: Methicillin-resistant
Text: as §1

[3] = tested on: carbapenem-resistant Pseudomonas aeruginosa (CRPA); format: cell-based; conditions: carbapenem-resistant (CRPA)
Text: as §1

[4] = tested on: vancomycin-resistant Enterococcus (VRE); format: cell-based
Text: as §1

[5] = tested on: carbapenem-resistant Escherichia coli (CREC); format: cell-based; conditions: carbapenem-resistant (CREC)
Text: as §1

[6] = tested on: Candida glabrata ATCC 15126; format: cell-based
Text: (§2) According to the Standards of Clinical and Laboratory Standards Institute (CLSI) of the USA for antimicrobial drug susceptibility test operation standards, the micronutrient serial twofold dilution method was used further determine MICs of 30 AMPs (S/N: LV-1 to LV-30) 10 clinically common sensitive strains and 6 fungi in clinical practice. The experiment was repeated 5 times in parallel.

[7] = tested on: Trichophyton ATCC MYA-4438; format: cell-based
Text: as §2

[8] = tested on: Corynebacterium ATCC 7715; format: cell-based
Text: as §2

[9] = tested on: Candida krusei ATCC 6258; format: cell-based
Text: as §2

[10] = tested on: Staphylococcus aureus (NRS 384); experiment: microbe, parasite or virus in culture; format: cell-based; conditions: NRS 384
In short: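 CLSI broth microdilution with serial twofold dilutions gave MICs against S. aureus NRS 384, with 5 parallel replicates. Levofloxacin and the AMP Cbf-K16 served as positive controls.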

[11] = tested on: rabbit red blood cells; format: cell-based; conditions: red cells of rabbit, 1 h
[12] = tested on: Staphylococcus aureus (NRS 384); conditions: NRS 384, 3 h
Experimental: Trypsin (250 U/mg, pH=8.0) and AMPs (LV-1 to LV-30) were mixed in a ratio of 1:10 (w/w) and added to a reaction buffer (0.2 M sodium phosphate, 1 mM CaCl2), pH 7.5), and then incubated at 37° C. for 3 h.

[13] = tested on: Shigella flexneri ATCC 12022; experiment: MIC against clinically common bacterial strain; format: cell-based
Text: as §2

[14] = Serum stability assay (residual level by RP-HPLC); conditions: human
[15] = tested on: Escherichia coli ATCC 25922; experiment: Oral formulations on mice with systemic bacterial infection; format: in vivo, ICR mice; conditions: three times a day for 7 days; for Number of mice that died on each day after infection: day 4 / Number of mice that died on each day after infection: day 5 / Number of mice that died on each day after infection: day 6 / Number of mice that died on each day after infection: day 7 / Number of mice that died on each day after infection: day 8 / Average survival times (Days): n = 10; for Average survival times (Days): observed for 14 d; for survival time of mice infected with Escherichia coli: gavage, observed 14 d
In short: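 ICR mice of both sexes, 10 per group, infected i.p. with 0.2 mL E. coli ATCC 25922 at 1×10^7 CFU/mL. Compounds gavaged by body weight immediately after infection, three times daily for 7 days; deaths and survival time recorded over 14 d observation.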

SMILES	MIC CRKP [1]	MIC MRSA [2]	MIC CRPA [3]	MIC VRE [4]	MIC CREC [5]	MIC Candida glabrata ATCC 15126 [6]	MIC Trichophyton ATCC MYA-4438 [7]	MIC Corynebacterium ATCC 7715 [8]	MIC Candida krusei ATCC 6258 [9]	MIC against Staphylococcus aureus (NRS 384) [10]	MHC (minimum hemolytic concentration, lowest concentration causing 10% hemolysis) [11]	Trypsin MIC [12]	MIC Shigella flexneri ATCC 12022 [13]	remaining at 12 h, 0.91 mg/mL [14]	Number of mice that died on each day after infection: day 4 ([15]; 1 mg/kg gavage)	Number of mice that died on each day after infection: day 5 ([15]; 1 mg/kg gavage)	Number of mice that died on each day after infection: day 6 ([15]; 1 mg/kg gavage)	Number of mice that died on each day after infection: day 7 ([15]; 1 mg/kg gavage)	Number of mice that died on each day after infection: day 8 ([15]; 1 mg/kg gavage)	Average survival times (Days) ([15]; 1 mg/kg gavage)	other results
CC(=O)N[C@H](CCCCN)C(=O)N[C@H](CCCCN)C(=O)N[C@H](CC(C)C)C(=O)N[C@H](CC(C)C)C(=O)N[C@H](Cc1ccc(F)c(F)c1)C(=O)N[C@H](CCCNC(=N)N)C(=O)N[C@H](CC(C)C)C(=O)N[C@H](CCCCN)C(=O)N[C@H](Cc1ccc(F)c(F)c1)C(=O)N[C@H](CCCNC(=N)N)C(=O)N[C@H](CCCCN)C(N)=O [LV-25] (Ac-[dK][dK][dL][dL][dPhe(3,4-F2)][dR][dL][dK][dPhe(3,4-F2)][dR][dK]-NH2)	8 µg/mL (≈ 5.03 µM)	2 µg/mL (≈ 1.26 µM)	4 µg/mL (≈ 2.52 µM)	8 µg/mL (≈ 5.03 µM)	4 µg/mL (≈ 2.52 µM)	8 µg/mL (≈ 5.03 µM)	8 µg/mL (≈ 5.03 µM)	2 µg/mL (≈ 1.26 µM)	8 µg/mL (≈ 5.03 µM)	1 µg/mL (≈ 0.629 µM)	>1000 µg/mL	1 µg/mL	2 µg/mL (≈ 1.26 µM)	97.8%	1 Mouse	1 Mouse	0 Mouse	1 Mouse	1 Mouse	10.8*** Days	Number of mice that died on each day after infection: day 4 ([15]; 0.2 mg/kg gavage): 1 Mouse; Number of mice that died on each day after infection: day 5 ([15]; 0.2 mg/kg gavage): 1 Mouse; Number of mice that died on each day after infection: day 6 ([15]; 0.2 mg/kg gavage): 2 Mouse; Number of mice that died on each day after infection: day 7 ([15]; 0.2 mg/kg gavage): 2 Mouse; Number of mice that died on each day after infection: day 8 ([15]; 0.2 mg/kg gavage): 1 Mouse; Average survival times (Days) ([15]; 0.2 mg/kg gavage): 8.5** Days; Number of mice that died on each day after infection: day 4 ([15]; 5 mg/kg gavage): 0 Mouse; Number of mice that died on each day after infection: day 5 ([15]; 5 mg/kg gavage): 3 Mouse; Number of mice that died on each day after infection: day 6 ([15]; 5 mg/kg gavage): 0 Mouse; Number of mice that died on each day after infection: day 7 ([15]; 5 mg/kg gavage): 2 Mouse; Number of mice that died on each day after infection: day 8 ([15]; 5 mg/kg gavage): 0 Mouse; Average survival times (Days) ([15]; 5 mg/kg gavage): 9.9** Days; survival time of mice infected with Escherichia coli [15]: superior to those of the Levofloxacin group
CC(=O)N[C@H](CCCNC(=N)N)C(=O)N[C@H](CCCCN)C(=O)N[C@H](CC(C)C)C(=O)N[C@H](CC(C)C)C(=O)N[C@H](Cc1ccc(C)cc1)C(=O)N[C@H](CCCCN)C(=O)N[C@H](CC(C)C)C(=O)N[C@H](CCCCN)C(=O)N[C@H](Cc1ccc(C)cc1)C(=O)N[C@H](CCCCN)C(=O)N[C@H](CCCNC(=N)N)C(N)=O [LV-11] (Ac-[dR][dK][dL][dL][dPhe(4-Me)][dK][dL][dK][dPhe(4-Me)][dK][dR]-NH2)	8 µg/mL (≈ 5.17 µM)	2 µg/mL (≈ 1.29 µM)	4 µg/mL (≈ 2.59 µM)	4 µg/mL (≈ 2.59 µM)	2 µg/mL (≈ 1.29 µM)	16 µg/mL (≈ 10.3 µM)	8 µg/mL (≈ 5.17 µM)	8 µg/mL (≈ 5.17 µM)	16 µg/mL (≈ 10.3 µM)	1 µg/mL (≈ 0.647 µM)	>1000 µg/mL	1 µg/mL	4 µg/mL (≈ 2.59 µM)	98.3%	1 Mouse	1 Mouse	1 Mouse	1 Mouse	2 Mouse	9.4** Days	
CC(=O)N[C@H](CCCCN)C(=O)N[C@H](CCCCN)C(=O)N[C@H](CC(C)C)C(=O)N[C@H](CC(C)C)C(=O)N[C@H](Cc1ccc2ccccc2c1)C(=O)N[C@H](CCCCN)C(=O)N[C@H](CC(C)C)C(=O)N[C@H](CCCCN)C(=O)N[C@H](Cc1ccc2ccccc2c1)C(=O)N[C@H](CCCCN)C(=O)N[C@H](CCCCN)C(N)=O [LV-17] (Ac-[dK][dK][dL][dL][d2Nal][dK][dL][dK][d2Nal][dK][dK]-NH2)	4 µg/mL (≈ 2.56 µM)	8 µg/mL (≈ 5.12 µM)	4 µg/mL (≈ 2.56 µM)	8 µg/mL (≈ 5.12 µM)	4 µg/mL (≈ 2.56 µM)	8 µg/mL (≈ 5.12 µM)	8 µg/mL (≈ 5.12 µM)	2 µg/mL (≈ 1.28 µM)	8 µg/mL (≈ 5.12 µM)	1 µg/mL (≈ 0.64 µM)	>1000 µg/mL	1 µg/mL	4 µg/mL (≈ 2.56 µM)	97.2%	1 Mouse	0 Mouse	2 Mouse	1 Mouse	0 Mouse	10.7*** Days	Number of mice that died on each day after infection: day 4 ([15]; 0.2 mg/kg gavage): 1 Mouse; Number of mice that died on each day after infection: day 5 ([15]; 0.2 mg/kg gavage): 2 Mouse; Number of mice that died on each day after infection: day 6 ([15]; 0.2 mg/kg gavage): 1 Mouse; Number of mice that died on each day after infection: day 7 ([15]; 0.2 mg/kg gavage): 1 Mouse; Number of mice that died on each day after infection: day 8 ([15]; 0.2 mg/kg gavage): 2 Mouse; Average survival times (Days) ([15]; 0.2 mg/kg gavage): 8.5** Days; Number of mice that died on each day after infection: day 4 ([15]; 5 mg/kg gavage): 2 Mouse; Number of mice that died on each day after infection: day 5 ([15]; 5 mg/kg gavage): 1 Mouse; Number of mice that died on each day after infection: day 6 ([15]; 5 mg/kg gavage): 0 Mouse; Number of mice that died on each day after infection: day 7 ([15]; 5 mg/kg gavage): 1 Mouse; Number of mice that died on each day after infection: day 8 ([15]; 5 mg/kg gavage): 1 Mouse; Average survival times (Days) ([15]; 5 mg/kg gavage): 9.8** Days; survival time of mice infected with Escherichia coli [15]: superior to those of the Levofloxacin group
CC(=O)N[C@H](CCCNC(=N)N)C(=O)N[C@H](CCCCN)C(=O)N[C@@H](C(=O)N[C@@H](C(=O)N[C@H](Cc1ccc2ccccc2c1)C(=O)N[C@H](CCCNC(=N)N)C(=O)N[C@@H](C(=O)N[C@H](CCCCN)C(=O)N[C@H](Cc1ccc2ccccc2c1)C(=O)N[C@H](CCCNC(=N)N)C(=O)N[C@H](CCCCN)C(N)=O)C(C)C)C(C)C)C(C)C [LV-16] (Ac-[dR][dK][dV][dV][d2Nal][dR][dV][dK][d2Nal][dR][dK]-NH2)	2 µg/mL (≈ 1.25 µM)	4 µg/mL (≈ 2.49 µM)	8 µg/mL (≈ 4.99 µM)	2 µg/mL (≈ 1.25 µM)	8 µg/mL (≈ 4.99 µM)	16 µg/mL (≈ 9.97 µM)	8 µg/mL (≈ 4.99 µM)	2 µg/mL (≈ 1.25 µM)	4 µg/mL (≈ 2.49 µM)	1 µg/mL (≈ 0.623 µM)	>1000 µg/mL	1 µg/mL	2 µg/mL (≈ 1.25 µM)	98.4%	1 Mouse	1 Mouse	1 Mouse	0 Mouse	2 Mouse	10.1*** Days	
